This is an account of results in patent publication US12440471B2, “Compositions and methods for the treatment of bronchopulmonary dysplasia (BPD) and BPD-associated pulmonary hypertension” (AyuVis Research, Inc., priority 2021, dated 2025).

Data set [1] in a line: Safety profile of AVR-48 in mice or rat pups (IV, SC, IN; MTD/NOAEL). It counts as in vivo. Conditions: C57BL/6J (mouse), Sprague Dawley Crl:CD (rat), mouse, rat, in vivo; for MTD at 3 days: read-out: maximum tolerated dose (MTD); for NOAEL at 3 days: read-out: no-observed-adverse-effect level (NOAEL). As for the experimental part:
(§1) Safety Profile of AVR-48. To assess the safety of AVR-48 (compound 8), two doses of intravenous (IV) slow bolus injections or subcutaneous (SC) injections or intranasal (IN) instillation were given to mice or rat pups (postnatal day 3-5 or P3-P5), >6 h apart. The total daily doses were up to 100 mg/kg/day IV, and up to 150 mg/kg/day SC, for 3 consecutive days. […] There was no change in any of the hematological or clinical chemistry parameters. Signs of discoloration, swelling, and macroscopic and microscopic signs of local irritation occurred at the site of administration in all treatment groups and were attributed to the administration vehicle (formulation of 10% DMSO, 20% Tetraglycol, and 20% PEG 400 in sterile water). […] Based on the parameters monitored in this study, the maximum tolerated dose (MTD) and no-observed-adverse-effect level (NOAEL) were considered to be 100 mg/kg/day via IV and 150 mg/kg/day via SC routes of dosing.
(§2) Animals. C57BL/6J mice were purchased from The Jackson Laboratory (Bar Harbor, ME, USA) and were maintained in a breeding colony at Drexel University, Philadelphia, PA, USA. Animal procedures were performed in accordance with the NIH Guide for the Care and Use of Laboratory Animals and were approved by the Institutional Animal Care and Use Committee (IACUC) of Drexel University Philadelphia, PA (Protocol No. 20706). Neonatal rat pups born from female pregnant Sprague Dawley Crl:CD (SD) rats (Charles River Laboratories, St-Constant, QC, Canada) were used for the toxicology and PK studies to evaluate safety, determine the maximum tolerated dose (MTD) and the PK profile of AVR-48. A minimum 6-day acclimation period was allowed between receipt of the animals and the start of treatment to accustom the rats to the laboratory environment. All rat studies were approved by the IACUC of ITR Laboratories, Canada (Protocol No. 74691).
(§3) Formulation of AVR-48 for efficacy and toxicokinetic studies. For the mouse dose response efficacy studies, AVR-48 was reconstituted in 0.9% sterile normal saline to give a final dose concentration of […] as a colorless solution, and injected IP (30 μl) on P2 and P4. The PLGA encapsulated AVR-48 or the GFP-tagged analog was resuspended in deionized sterile water to make a nanosuspension with final dose concentration of 0.025, 0.05 and 0.11 mg/kg/drop. The surfactant Curosurf® (Cheisi Parma, Italy), available commercially, was delivered IN at a volume of 3 μl per nostril, on P2 and P4. For the toxicokinetic study of AVR-48 in rat pups, a formulation of 10% DMSO, 20% tetraglycol, 20% PEG 400, and 50% sterile water was made fresh before administration (Shah, Das et al. 2021).
(§4) Statistical Analysis. All statistical analyses were performed using Graph Pad Prism version 7.0 (GraphPad Software, San Diego, CA). The data are expressed as the mean±SEM with n=5 to 7 mice in each group. Groups were compared with the two-tailed unpaired t-test and one- or two-way analysis of variance (ANOVA), as appropriate. P<0.05 was considered statistically significant. For the toxicology and PK study, a generalized Analysis of Variance/Covariance (ANOVA/ANCOVA) test was performed on the numerical data (3 or more animals/groups) on the study as follows: An automatic transformation was used to analyze the data for homogeneity of variance using Levene's test. Parametric and non-parametric trends were analyzed using the Williams and the Shirley-Williams tests, respectively. Homogeneous data was analyzed using the ANOVA/ANCOVA, and the significance of intergroup differences between the control and test item-treated groups was analyzed using Dunnett's test. Heterogeneous data was analyzed using Kruskal-Wallis test and the significance of intergroup differences between the control and test item-treated groups was assessed using a nonparametric Dunnett's test. All data are reported as ±SEM. […]

Another data set relates to mice or rat pups. Described as above. It counts as in vivo. As for the experimental part: as §1, §2, §3, §4
A further data set has as its system pre-term lamb BPD model. Put plainly: Pre-term lamb BPD model: plasma cytokines. The format is in vivo.
In another data set the test system is hPBMC. Put plainly: Secreted IL-10 and LPS induced TNF-α in hPBMC by ELISA. It counts as cell-based, human. As for the experimental part: FIG. 26 C, Pretreatment (24 h) of AVR-48 to hPBMC followed by 6h of treatment with LPS (25 ng/ml) decreased the secreted TNF-α production in hPBMC cell supernatants. N=3.**p<0.01, ***p<0.001. One-way ANOVA.
Data set [2] concerns Primary splenocytes of C57BL/6J mice. Put plainly: Polarization of mouse primary splenocytes, FACS. The format is cell-based. The procedure:
Primary splenocytes of C57BL/6J mice (n=3-5) were treated of AVR 48 for 72 hrs. PMA (200 ng/mL) was used as a positive control. The cells were washed and stained for CD11b and MHC-II and were analyzed by FACS. Dead cells were excluded by Live/dead staining during analysis. It was observed that the expression levels of MHC-II and CD11b increased upon AVR48 stimulation in a dose dependent manner in splenocytes. Monocytes were further analyzed for Ly6c. As described by (Swirski et al, J Clin Invest, 2007, 117(1):195-205. doi: 10.1172/JCI29950), spleen cells with LY6c Hi are considered as inflammatory whereas Ly6c low as resident and anti-inflammatory (FIG. 24A). Next, live singlet cells that were CD11b hi and CD11c low, were gated for F4/80 and MHC-II expression. Cells having increased expression of F4/80 and MHC-II were considered as macrophages whereas cells having low expression of F4/80 were considered as monocytes.

Like-named read-outs stand apart in the source and are kept apart here.

In the case of `CC(=O)N[C@@H]1C(Oc2ccc([N+](=O)[O-])cc2)OC(CO)C(O)C1O` (stereo partly shown) [AVR-48], in data set [1] (iv), the MTD at 3 days is 100 mg/kg/day and the NOAEL at 3 days was determined as 100 mg/kg/day. Also, in data set [1] (sc), the MTD at 3 days was 150 mg/kg/day and the NOAEL at 3 days is 150 mg/kg/day. Moreover, in the data set with mice or rat pups (high dose of 100 mg/kg), the “toxic effects in the visceral organs” value is on record as “did not have any toxic effects”. For the same compound, the “hematological or clinical chemistry parameters” value in the data set with mice or rat pups (in vivo) was “no change”. Further, the therapeutic index in the data set on mice or rat pups (juvenile mouse, minimum efficacious dose 5 mg/kg/day vs NOAEL 100 mg/kg/day) was found to be 20 fold. Also, the “systemic gross observations at necropsy in the visceral organs” value in the data set with mice or rat pups (mouse and rat pups) is on record as “no evidence of any AVR-48 related systemic gross observations”. Also, the “white blood cell count, lymphocyte count (females only), total bilirubin (SC groups only)” value in the data set on mice or rat pups (treated animals, considered non-adverse, not dose dependent) is recorded as “slight decrease”. The injection site findings entry with mice or rat pups (twice daily IV at 50 mg/kg/dose vs vehicle IV) is listed as “higher incidence of dermal/subcutaneous hemorrhage at the injection site”. In addition, the “tolerability of all doses” value in the data set with mice or rat pups (two doses/day >6 h apart, up to 100 mg/kg/day IV, up to 150 mg/kg/day SC, 3 consecutive days, P3-P5 pups) is listed as “well tolerated”. Also, the “adverse clinical signs and body weight” value in the data set on mice or rat pups (up to 100 mg/kg/day IV, up to 150 mg/kg/day SC, 3 days) is “no observed adverse clinical signs and or any change in body weight”. Besides, the “IL-10 concentration in plasma” value with pre-term lamb BPD model (early time points (1-4 days), 2/d for 7 days, vs vehicle) is “significantly decreased”. The “IL-6 concentration in plasma” value in the data set with pre-term lamb BPD model (vs vehicle treated lambs after 10 days) is “significantly decreased”. For the same compound, the “secreted TNF-α production” value with hPBMC (24 h pretreatment followed by 6 h LPS (25 ng/ml)) is “decreased”. In addition, the “secreted IL-10 levels” value in the data set with hPBMC (hPBMC supernatant, 24 h post treatment) was “dose dependently increased”. In addition, in data set [2] (48-72 h), the “resident/anti-inflammatory macrophages (Ly6c hi/low)” value is reported as “produces more resident/anti-inflammatory macrophages”. Besides, in data set [2] (72 hrs, dose dependent manner), the “expression level of CD11b” value is reported as “increased” and the “expression level of MHC-II” value is listed as “increased”.
